The text below walks through data of patent publication US9102698B2 (CAN-FITE BIOPHARMA LTD., priority 2007, dated 2015).

The test system of one series is A3AR. Conditions: synovial and peripheral blood mononuclear cells of AIA rats, upon IB-MECA treatment; cited from earlier work.
Another series has as its system TNF-α and MIP-1α. As to conditions: in vitro; cited from earlier work.
Series [1] deals with collagen and adjuvant induced arthritis (AIA). As to conditions: experimental animal models; cited from earlier work.
A further series relates to colon carcinoma. Conditions: oral, nude mice; cited from earlier work.
The subject of series [2] is tumors (melanoma, colon carcinoma, prostate carcinoma). Conditions: orally administered; syngeneic (melanoma, colon carcinoma) and xenograft (colon and prostate carcinoma) mouse models; cited from earlier work.
For another series, the system named is neutrophils. Conditions: oral, mice, cited from earlier work.
A short description of series [3]: Solubility study on 3-iodobenzylamine hydrochloride in synthesis solvents. The class given is physicochemical. An excerpt: 3-Iodobenzylamine hydrochloride recrystallized from protic solvents but was insoluble in aprotic organic solvents. No purity enhancement was observed during hot (reflux) slurries in aprotic organic solvents.

On to `CNC(=O)[C@H]1O[C@@H](n2cnc3c(NCc4cccc(I)c4)ncnc32)[C@H](O)[C@@H]1O` [IB-MECA, 1-deoxy-1-(6-{[(3-iodophenyl)methyl]amino}9H-purine-9-yl)-N-methyl-β-d-ribofuranuronamide], for which, in the series on A3AR, the A3AR level result was “down regulates”. In the series with TNF-α and MIP-1α, the “production of MIP-1α” value is recorded as “inhibited” and the “production of TNF-α” value is listed as “inhibited”. Also, the “development of collagen and adjuvant induced arthritis” value in series [1] is reported as “preventing the development”. Besides, in the series on colon carcinoma, the “neutrophil recovery after cytotoxic drug therapy” value was “stimulates neutrophil recovery” and the “progression of colon carcinoma” value was “inhibits progression of colon carcinoma”. For the same molecule, the development of tumors result in series [2] is “inhibits the development of tumors”. Moreover, the cytotoxic-induced myelo-toxicity entry in the series on neutrophils is reported as “protects against cytotoxic-induced myelo-toxicity”. The production of neutrophils result in the series with neutrophils (via an increase in G-CSF) is “stimulates the production of neutrophils”.

As for `Cl.NCc1cccc(I)c1` [3-iodobeuzylamine hydrochloride, 3-iodobenzylamine hydrochloride], the “Behavior at 21 C.” value in series [3] (IPA, 10 solvent volumes) is listed as “Insoluble”; in series [3] (IPAc, 10 solvent volumes), “Insoluble”; in series [3] (MeCN, 5 solvent volumes) it was “Insoluble”; in series [3] (MeOH, 1 solvent volume), “Insoluble”; in series [3] (THF, 10 solvent volumes), “Insoluble”. In addition, the Behavior at reflux result is “Soluble” in series [3] (IPA, 10 solvent volumes); “Insoluble” in series [3] (IPAc, 10 solvent volumes); “Insoluble” in series [3] (MeCN, 5 solvent volumes); “Soluble” in series [3] (MeOH, 1 solvent volume); “Insoluble” in series [3] (THF, 10 solvent volumes).
